Assay results reported in patent US20040005537A1, “Method of identifying toxic agents using differential gene expression” (priority 2000, published 2004).

Test system: rat heart tissue
Assay: GENECALLING differential gene expression analysis after dosing of serotonin modulating agents
Assay type: in vivo, Sprague Dawley rats
How it was run: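 GENECALLING profiling of cDNA from total RNA, keeping gene fragments modulated beyond ±1.5-fold. Tissue collected 24 h after final dosing of serotonin modulating agents; control rats received sterile water or canola oil.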

## CCNC(C)Cc1cccc(C(F)(F)F)c1 (centres unmarked) [fenfluramine]
CARDIOTOX 70
  Effects on Transcription Level: Novel gene fragment, 467 bp, 94% SI to mouse gelsolin [J04953]: −3.6 fold
CARDIOTOX 71
  Effects on Transcription Level: Novel gene fragment, 535 bp, 90% SI to mouse slow/cardiac troponin C [M29793]: −3.7 fold
CARDIOTOX 72
  Effects on Transcription Level: Novel gene fragment, 445 bp, 85% SI to human skeletal muscle alpha 2 actinin [M86406]: −2.0 fold
CARDIOTOX 73
  Effects on Transcription Level: Novel gene fragment, 246 bp, 89% SI to mouse ponsin-1 [AF078667]: −2.8 fold
CARDIOTOX 74
  Effects on Transcription Level: Novel gene fragment, 126 bp, 77% SI to human DNA sequence from cosmid V311G7, between markers DXS366 and DXS87 on chromosome X [Z69304]: +1.9 fold
CARDIOTOX 75
  Effects on Transcription Level: Novel gene fragment, 370 bp: −3.0 fold
CARDIOTOX 76
  Effects on Transcription Level: Novel gene fragment, 337 bp, 78% SI to novel human protein AHNAK [M80899]: −3.6 fold
CARDIOTOX 77
  Effects on Transcription Level: Novel gene fragment, 100 bp, 93% SI to human KIAA0750 protein [ABO18293]: −9.0 fold
CARDIOTOX 78
  Effects on Transcription Level: Novel gene fragment, 44 bp: −6.7 fold
CARDIOTOX 79
  Effects on Transcription Level: Novel gene fragment, 698 bp, 93% SI to mouse plenty-of-prolines-101 [AF062655]: −2.5 fold
CARDIOTOX 80
  Effects on Transcription Level: Novel gene fragment, 660 bp, 84% SI to mouse membrane protein TMS-2 [AF181685]: −3.7 fold
CARDIOTOX 81
  Effects on Transcription Level: Novel gene fragment, 115 bp: −6.3 fold
CARDIOTOX 82
  Effects on Transcription Level: Novel gene fragment, 294 bp, 95% SI to mouse Ndr1 related protein Ndr2 [AB033921]: −2.0 fold
CARDIOTOX 83
  Effects on Transcription Level: Novel gene fragment, 198 bp: +2.7 fold
CARDIOTOX 84
  Effects on Transcription Level: Novel gene fragment, 730 bp, 86% SI to mouse E800 [Y10968]: −2.4 fold
CARDIOTOX 85
  Effects on Transcription Level: Novel gene fragment, 294 bp, 98% SI to cysteine conjugate beta-lyase [S61960]: −2.4 fold
CARDIOTOX 86, GenBank A1243266
  Effects on Transcription Level: Aconitase: −3.4 fold
CARDIOTOX 87, GenBank M17422
  Effects on Transcription Level: Ribosomal protein L7: +2.5 fold
CARDIOTOX 88, GenBank X51706
  Effects on Transcription Level: Ribosomal protein L9: +11.0 fold
CARDIOTOX 89, GenBank X53504
  Effects on Transcription Level: Ribosomal protein L12: −1.5 fold
CARDIOTOX 90, GenBank V01270
  Effects on Transcription Level: 18S, 5.8S, and 28S ribosomal RNA's: +6 fold
CARDIOTOX 91, GenBank U10357
  Effects on Transcription Level: Pyruvate dehydrogenase kinase 2 (PDK2): −7.7 fold
CARDIOTOX 92, GenBank J03179
  Effects on Transcription Level: D-Binding Protein (DBP): −1.9 fold
CARDIOTOX 93, GenBank L03294
  Effects on Transcription Level: Lipoprotein lipase: −2.3 fold
CARDIOTOX 94, GenBank X02610
  Effects on Transcription Level: Non-neuronal enolase: +3.5 fold
CARDIOTOX 95, GenBank L10669
  Effects on Transcription Level: Glycogen phosphorylase (muscle isozyme): −2.3 fold
CARDIOTOX 96, GenBank X14209
  Effects on Transcription Level: Cytochrome c oxidase subunit IV: +10.0 fold
CARDIOTOX 97, GenBank M17083
  Effects on Transcription Level: Alpha-globin: +3.4 fold
CARDIOTOX 98, GenBank X06701
  Effects on Transcription Level: Beta-globin: +3.6 fold
CARDIOTOX 99, GenBank AF197916
  Effects on Transcription Level: Myoglobin: +4.0 fold
CARDIOTOX 100, GenBank L38717
  Effects on Transcription Level: Titin: −1.6 fold
CARDIOTOX 101, GenBank V01218
  Effects on Transcription Level: Skeletal muscle actin: −14.9 fold
CARDIOTOX 102, GenBank M11851
  Effects on Transcription Level: Myosin light chain 2 (MLC2): +2.4 fold
CARDIOTOX 103, GenBank X15938
  Effects on Transcription Level: Alpha cardiac myosin heavy chain: −7.5 fold
CARDIOTOX 104, GenBank U77354
  Effects on Transcription Level: Troponin I: +1.8 fold
CARDIOTOX 105, GenBank AF001334
  Effects on Transcription Level: Cardiac calsequestrin: −2.4 fold
CARDIOTOX 106, GenBank M16975
  Effects on Transcription Level: Sulfated glycoprotein 2: −1.8 fold
CARDIOTOX 107, GenBank AB000507
  Effects on Transcription Level: Aquaporin 7: +1.5 fold
CARDIOTOX 108, GenBank X97831
  Effects on Transcription Level: Carnitine/acylcarnitine carrier protein: −2.6 fold
CARDIOTOX 109, GenBank U40628
  Effects on Transcription Level: Glu-Pro Dipeptide Repeat: −5.6 fold
CARDIOTOX 110, GenBank X54737
  Effects on Transcription Level: Cystatin beta: +2.7 fold
CARDIOTOX 111
  Effects on Transcription Level: Novel gene fragment, 593 bp, 90% SI to human calcineurin B-like protein [Z08983]: +2.1 fold
CARDIOTOX 112
  Effects on Transcription Level: Novel gene fragment, 179 bp, 88% SI to human titin [X90568]: −3.0 fold
CARDIOTOX 113
  Effects on Transcription Level: Novel gene fragment, 700 bp, 91% SI to mouse periplakin (PPL) [AF116523]: +2.0 fold
CARDIOTOX 114, GenBank J05029
  Effects on Transcription Level: Long chain acyl-CoA dehydrogenase (LCAD): +1.8 fold
CARDIOTOX 115, GenBank M19936
  Effects on Transcription Level: Sulfated glycoprotein 1 (SGP-1): −2.0 fold
CARDIOTOX 116, GenBank M11670
  Effects on Transcription Level: Catalase: +2.1 fold
CARDIOTOX 117, GenBank AF084186
  Effects on Transcription Level: Alpha-fodrin (A2A) (Nonerythroid spectrin alpha subunit): −1.8 fold
CARDIOTOX 118, GenBank M27902
  Effects on Transcription Level: Cardiac specific sodium channel alpha-subunit: −2.1 fold
CARDIOTOX 119, GenBank U40628
  Effects on Transcription Level: Glu-Pro Dipeptide Repeat: +4.2 fold
CARDIOTOX 120
  Effects on Transcription Level: Novel gene fragment, 200 bp, 64% SI to human KIAA0733 protein [AB018316]: −1.7 fold
CARDIOTOX 121, GenBank L42855
  Effects on Transcription Level: RNA polymerase II transcription factor SIII (p18 subunit): +1.7 fold
CARDIOTOX 122, GenBank L01702
  Effects on Transcription Level: Protein-tyrosine phosphalase (LRP): +2.0 fold
CARDIOTOX 123, GenBank U25264
  Effects on Transcription Level: Skeletal muscle selenoprotein W (SelW): −1.8 fold
CARDIOTOX 124, GenBank X15635
  Effects on Transcription Level: Sarcoplasmic reticulum 2+-Ca-ATPase: −1.6 fold
CARDIOTOX 125, GenBank X53377
  Effects on Transcription Level: Ribosomal protein S7: +1.0 fold
CARDIOTOX 126, GenBank X05300
  Effects on Transcription Level: Ribophorin I: +1.6 fold
CARDIOTOX 127, GenBank X15939
  Effects on Transcription Level: Beta cardiac myosin heavy chain: +2.3 fold
CARDIOTOX 128, GenBank L12380
  Effects on Transcription Level: ADP-ribosylation factor 1: +1.2 fold
CARDIOTOX 129, GenBank U04942
  Effects on Transcription Level: Laminin receptor: +2.6 fold
CARDIOTOX 130
  Effects on Transcription Level: Novel gene fragment, 206 bp, 89% SI to human seryl-tRNA synthetase [X91257]: +1.8 fold
CARDIOTOX 131, GenBank X86086
  Effects on Transcription Level: Annexin VI: −1.8 fold
CARDIOTOX 132
  Effects on Transcription Level: Novel gene fragment, 325 bp, 90% SI to mouse N-RAP [U76618]: +1.7 fold
LD10 dose for three days
  Effects on Transcription Level: Novel gene fragment, 61 bp (CARDIOTOX 134): −2.4 fold
  Effects on Transcription Level: Novel gene fragment, 337 bp (CARDIOTOX 133): −2.4 fold
  Effects on Transcription Level: Novel gene fragment, 378 bp, 88% SI to human coatomer protein (COPA) [U24105] (CARDIOTOX 138): −1.6 fold
LD10 dose for three days, GenBank D16479
  Effects on Transcription Level: Long chain 3-ketoacyl-CoA thiolase (CARDIOTOX 136): −1.1 fold
LD10 dose for three days, GenBank D87671
  Effects on Transcription Level: TATA-binding protein interacting protein 120 (TIP120) (CARDIOTOX 135): +1.9 fold
LD10 dose for three days, GenBank D88250
  Effects on Transcription Level: Serine protease (CARDIOTOX 139): +4.0 fold
LD10 dose for three days, GenBank M34043
  Effects on Transcription Level: Thymosin beta-4 (CARDIOTOX 137): +1.6 fold
LD10 dose for three days, GenBank X86086
  Effects on Transcription Level: Annexin VI (no CARDIOTOX assignment given): −1.7 fold
